What all share (assay): relative viability (nuclei count vs DMSO), 5 days (fraction); higher = more cells survive
Compound in the assay “Decitabine + Navitoclax”: Nc1ncn([C@H]2C[C@H](O)[C@@H](CO)O2)c(=O)n1 [Decitabine] + CC1(C)CCC(c2ccc(Cl)cc2)=C(CN2CCN(c3ccc(C(=O)NS(=O)(=O)c4ccc(N[C@H](CCN5CCOCC5)CSc5ccccc5)c(S(=O)(=O)C(F)(F)F)c4)cc3)CC2)C1 [Navitoclax] (partner 0.5 µM)
A digest of the protocol:
(§1)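 Lung cancer cell lines were seeded in 1536-well plates and dosed by pin tool the next day, with either a single drug or a fixed anchor-drug dose combined with five library-drug doses (not always all listed) spaced in √10 steps. Five days later, one step fixed the cells and stained their nuclei (final 0.05% Triton X-100, 1% formaldehyde, 1 ug/ml Hoechst), and nuclei were counted on 4× images. Relative viability is the nuclei count in treated wells divided by the count in vehicle wells, and each value is the median of duplicate plates.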

Compound in the assay “Decitabine + Pictilisib”: Nc1ncn([C@H]2C[C@H](O)[C@@H](CO)O2)c(=O)n1 [Decitabine] + CS(=O)(=O)N1CCN(Cc2cc3nc(-c4cccc5[nH]ncc45)nc(N4CCOCC4)c3s2)CC1 [Pictilisib] (partner 1 µM)
In outline: as §1

Compound in the assay “Decitabine + OSI-027”: Nc1ncn([C@H]2C[C@H](O)[C@@H](CO)O2)c(=O)n1 [Decitabine] + COc1cccc2cc(-c3nc([C@H]4CC[C@H](C(=O)O)CC4)n4ncnc(N)c34)[nH]c12 [OSI-027] (partner 0.5 µM)
In outline:
as §1

For NCI-H1792, the relative viability was 0.6 in the assay with Decitabine + Navitoclax (first compound 0.04 µM); 0.672 in the assay with Decitabine + Navitoclax (first compound 0.1265 µM); 0.625 with Decitabine + Navitoclax (first compound 0.4 µM); 0.454 in the assay with Decitabine + Navitoclax (first compound 1.265 µM); 0.304 in the assay with Decitabine + Navitoclax (first compound 4 µM); 0.303 with Decitabine + Pictilisib (first compound 0.04 µM). Besides, the relative viability was 0.243 with Decitabine + Pictilisib (first compound 0.1265 µM); 0.34 with Decitabine + Pictilisib (first compound 0.4 µM); 0.235 with Decitabine + Pictilisib (first compound 1.265 µM); 0.197 in the assay with Decitabine + Pictilisib (first compound 4 µM); 0.74 in the assay with Decitabine + OSI-027 (first compound 0.04 µM); 0.727 in the assay with Decitabine + OSI-027 (first compound 0.1265 µM). In addition, the relative viability with Decitabine + OSI-027 (first compound 0.4 µM) turned out to be 0.712; with Decitabine + OSI-027 (first compound 1.265 µM) it was 0.539; in the assay with Decitabine + OSI-027 (first compound 4 µM), 0.505.

As for NCI-H1793, the relative viability was determined as 0.356 with Decitabine + Navitoclax (first compound 0.04 µM); 0.406 in the assay with Decitabine + Navitoclax (first compound 0.1265 µM); 0.333 with Decitabine + Navitoclax (first compound 0.4 µM); 0.227 with Decitabine + Navitoclax (first compound 1.265 µM); 0.169 with Decitabine + Navitoclax (first compound 4 µM); 0.308 in the assay with Decitabine + Pictilisib (first compound 0.04 µM). Moreover, the relative viability with Decitabine + Pictilisib (first compound 0.1265 µM) was 0.351; with Decitabine + Pictilisib (first compound 0.4 µM), 0.245; with Decitabine + Pictilisib (first compound 1.265 µM), 0.302; with Decitabine + Pictilisib (first compound 4 µM) it was 0.224; with Decitabine + OSI-027 (first compound 0.04 µM) it was 0.204; in the assay with Decitabine + OSI-027 (first compound 0.1265 µM) it was 0.277. The relative viability with Decitabine + OSI-027 (first compound 0.4 µM) came out at 0.289; in the assay with Decitabine + OSI-027 (first compound 1.265 µM), 0.277; in the assay with Decitabine + OSI-027 (first compound 4 µM), 0.233.

NCI-H1915: the relative viability with Decitabine + Navitoclax (first compound 0.04 µM) was 0.338; in the assay with Decitabine + Navitoclax (first compound 0.1265 µM) it was 0.253; in the assay with Decitabine + Navitoclax (first compound 0.4 µM), 0.223; with Decitabine + Navitoclax (first compound 1.265 µM), 0.184; in the assay with Decitabine + Navitoclax (first compound 4 µM), 0.188; in the assay with Decitabine + Pictilisib (first compound 0.04 µM), 0.814. Also, the relative viability with Decitabine + Pictilisib (first compound 0.1265 µM) turned out to be 0.662; in the assay with Decitabine + Pictilisib (first compound 0.4 µM) it was 0.387; in the assay with Decitabine + Pictilisib (first compound 1.265 µM) it was 0.295; in the assay with Decitabine + Pictilisib (first compound 4 µM), 0.304; with Decitabine + OSI-027 (first compound 0.04 µM) it was 0.447; in the assay with Decitabine + OSI-027 (first compound 0.1265 µM), 0.429. Besides, the relative viability in the assay with Decitabine + OSI-027 (first compound 0.4 µM) was found to be 0.29; with Decitabine + OSI-027 (first compound 1.265 µM), 0.312; in the assay with Decitabine + OSI-027 (first compound 4 µM), 0.263.

As to NCI-H1944, the relative viability in the assay with Decitabine + Navitoclax (first compound 0.04 µM) turned out to be 0.689; in the assay with Decitabine + Navitoclax (first compound 0.1265 µM), 0.669; in the assay with Decitabine + Navitoclax (first compound 0.4 µM) it was 0.564; in the assay with Decitabine + Navitoclax (first compound 1.265 µM) it was 0.423; with Decitabine + Navitoclax (first compound 4 µM) it was 0.365; with Decitabine + Pictilisib (first compound 0.04 µM), 0.353. Also, the relative viability came out at 0.424 in the assay with Decitabine + Pictilisib (first compound 0.1265 µM); 0.369 in the assay with Decitabine + Pictilisib (first compound 0.4 µM); 0.319 with Decitabine + Pictilisib (first compound 1.265 µM); 0.299 with Decitabine + Pictilisib (first compound 4 µM); 0.372 with Decitabine + OSI-027 (first compound 0.04 µM); 0.424 in the assay with Decitabine + OSI-027 (first compound 0.1265 µM). Moreover, the relative viability with Decitabine + OSI-027 (first compound 0.4 µM) amounted to 0.353; with Decitabine + OSI-027 (first compound 1.265 µM), 0.329; with Decitabine + OSI-027 (first compound 4 µM), 0.354.

For NCI-H1975, the relative viability with Decitabine + Navitoclax (first compound 0.04 µM) came out at 0.431; in the assay with Decitabine + Navitoclax (first compound 0.1265 µM), 0.317; with Decitabine + Navitoclax (first compound 0.4 µM) it was 0.291; with Decitabine + Navitoclax (first compound 1.265 µM), 0.256; with Decitabine + Navitoclax (first compound 4 µM) it was 0.256; with Decitabine + Pictilisib (first compound 0.04 µM), 0.293. Besides, the relative viability worked out at 0.254 with Decitabine + Pictilisib (first compound 0.1265 µM); 0.226 with Decitabine + Pictilisib (first compound 0.4 µM); 0.238 with Decitabine + Pictilisib (first compound 1.265 µM); 0.218 in the assay with Decitabine + Pictilisib (first compound 4 µM); 0.516 with Decitabine + OSI-027 (first compound 0.04 µM); 0.378 with Decitabine + OSI-027 (first compound 0.1265 µM). The values for the relative viability with Decitabine + OSI-027 (first compound 0.4 µM), with Decitabine + OSI-027 (first compound 1.265 µM) and in the assay with Decitabine + OSI-027 (first compound 4 µM) were 0.32, 0.277 and 0.256, respectively.

For the cell line NCI-H1993, the relative viability came to 0.917 in the assay with Decitabine + Navitoclax (first compound 0.04 µM); 0.993 with Decitabine + Navitoclax (first compound 0.1265 µM); 0.906 in the assay with Decitabine + Navitoclax (first compound 0.4 µM); 0.732 with Decitabine + Navitoclax (first compound 1.265 µM); 0.87 in the assay with Decitabine + Navitoclax (first compound 4 µM); 0.866 with Decitabine + Pictilisib (first compound 0.04 µM). Moreover, the relative viability in the assay with Decitabine + Pictilisib (first compound 0.1265 µM) worked out at 0.973; in the assay with Decitabine + Pictilisib (first compound 0.4 µM) it was 0.788; with Decitabine + Pictilisib (first compound 1.265 µM), 0.9; in the assay with Decitabine + Pictilisib (first compound 4 µM), 0.725; with Decitabine + OSI-027 (first compound 0.04 µM) it was 0.593; with Decitabine + OSI-027 (first compound 0.1265 µM), 0.599. Moreover, the relative viability in the assay with Decitabine + OSI-027 (first compound 0.4 µM) was 0.519; with Decitabine + OSI-027 (first compound 1.265 µM), 0.514; with Decitabine + OSI-027 (first compound 4 µM), 0.548.

Take NCI-H2009: the relative viability in the assay with Decitabine + Navitoclax (first compound 0.04 µM) was 0.945; with Decitabine + Navitoclax (first compound 0.1265 µM) it was 0.722; in the assay with Decitabine + Navitoclax (first compound 0.4 µM) it was 0.568; with Decitabine + Navitoclax (first compound 1.265 µM), 0.416; with Decitabine + Navitoclax (first compound 4 µM) it was 0.263; in the assay with Decitabine + Pictilisib (first compound 0.04 µM) it was 0.773. In addition, the relative viability in the assay with Decitabine + Pictilisib (first compound 0.1265 µM) was found to be 0.672; with Decitabine + Pictilisib (first compound 0.4 µM), 0.351; in the assay with Decitabine + Pictilisib (first compound 1.265 µM), 0.386; with Decitabine + Pictilisib (first compound 4 µM), 0.245; in the assay with Decitabine + OSI-027 (first compound 0.04 µM) it was 0.518; with Decitabine + OSI-027 (first compound 0.1265 µM), 0.437. In addition, the values for the relative viability with Decitabine + OSI-027 (first compound 0.4 µM), with Decitabine + OSI-027 (first compound 1.265 µM) and in the assay with Decitabine + OSI-027 (first compound 4 µM) were 0.336, 0.296 and 0.25, respectively.

Source of the values: the supplement of paper PMC10307832.
